Several values for one entry are separate records, joined by “and”; a condition that tells them apart may be missing. Equal entries are not always repeated.

The results in this text go back to patent US20250136722A1, “CYTOTOXICITY TARGETING CHIMERAS” (GLAXOSMITHKLINE INTELLECTUAL PROPERTY DEVELOPMENT LIMITED, priority 2021, published 2025).

The target of experiment [1] is T1, CHOK1 cells engineered to overexpress human CCR2 (Homo sapiens, UniProt P41597).
T1 construct: expressed in transfected cells; host or cells: CHOK1 cells
Nature of the experiment: Antibody dependent cellular cytotoxicity (ADCC) reporter assay (Example 199). The format is cell-based. The note with it: with anti-cotinine antibody SEQ ID NO: 11/12, CHOK1-human CCR2 target cells, Jurkat FcγRIIIa NFAT-luciferase reporter cells, 12-18 hours; for EC50: read-out: ADCC Reporter Assay pEC50 (converted). In outline:
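CHOK1-hCCR2 target cells are co-incubated for 12–18 h with Jurkat FcγRIIIa/NFAT-luciferase reporter cells, ARM compound (1 pM–10 μM) and anti-cotinine antibody with a DE-mutant human IgG1 Fc (0.01–200 μg/mL). Luminescence is expressed as signal:background against no-compound wells; EC50 comes from nonlinear fit and is reported as pEC50, averaged across runs.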
On the technique in general: A reporter such as luciferase makes a cellular process visible.

Experiment [2] has as its target human alpha1 nicotinic acetylcholine (nACh) receptor (Homo sapiens, UniProt P02708+Q07001). Nature of the experiment: Nicotinic acetylcholine receptor antagonism assay, IONFlux automated patch clamp (Example 203). The format is cell-based. Conditions: for Emax at 100 µM: maximum percentage antagonism at maximum concentration tested 100 μM; for IC50: nAChR antagonism, ACh stimulated, patch clamp. In outline: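 Human α1 nAChR-expressing cells were preincubated with compound (top 10 μM or 100 μM), then stimulated with 10 mM ACh; peak currents were recorded by IONFlux automated patch clamp. Percent inhibition versus ACh-alone control was vehicle- and rundown-corrected, then fitted to give IC50, with maximal antagonism at the top concentration; recordings with control current <500 pA were excluded.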
(In general: In patch-clamp work, channel activity is measured electrically.)

Experiment [3] has as its target Anti-cotinine antibody (SEQ ID NO: 11 / SEQ ID NO: 12, rabbit variable region with human IgG1 Fc domain). Nature of the experiment: Binding of anti-cotinine antibody to ARM compounds by SPR, Biacore T200, 37° C. (Example 202). Conditions: pH 7.4, rabbit variable region/human IgG1 Fc antibody captured on protein A. In outline: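 Antibody captured on protein A chip. Compounds injected (3-fold, 5-point, top 200 nM) at 100 μL/min with 200 s association and 2000 s dissociation, at 37° C. in HEPES pH 7.4 buffer with 1% DMSO. Double-referenced data fit to 1:1 kinetics. Kd = koff/kon, reported as pKd, averaged over runs.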
On the technique in general: SPR reads the build-up and loss of mass on a sensor chip optically.

Chain of human alpha1 nicotinic acetylcholine (nACh) receptor (P02708 21-457): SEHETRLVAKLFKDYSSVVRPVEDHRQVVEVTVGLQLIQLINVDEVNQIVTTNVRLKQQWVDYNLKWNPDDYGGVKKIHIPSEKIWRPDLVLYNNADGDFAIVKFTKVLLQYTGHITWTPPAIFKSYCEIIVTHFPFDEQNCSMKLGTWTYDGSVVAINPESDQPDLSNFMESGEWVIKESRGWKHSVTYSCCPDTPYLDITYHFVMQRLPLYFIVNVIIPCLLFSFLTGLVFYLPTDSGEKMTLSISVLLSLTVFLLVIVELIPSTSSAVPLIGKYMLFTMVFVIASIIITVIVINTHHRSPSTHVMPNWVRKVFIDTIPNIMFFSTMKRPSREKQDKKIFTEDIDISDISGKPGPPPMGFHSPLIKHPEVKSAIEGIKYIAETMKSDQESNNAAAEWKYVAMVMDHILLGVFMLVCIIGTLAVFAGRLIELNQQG
Chain of human alpha1 nicotinic acetylcholine (nACh) receptor (P11230 24-501 partner): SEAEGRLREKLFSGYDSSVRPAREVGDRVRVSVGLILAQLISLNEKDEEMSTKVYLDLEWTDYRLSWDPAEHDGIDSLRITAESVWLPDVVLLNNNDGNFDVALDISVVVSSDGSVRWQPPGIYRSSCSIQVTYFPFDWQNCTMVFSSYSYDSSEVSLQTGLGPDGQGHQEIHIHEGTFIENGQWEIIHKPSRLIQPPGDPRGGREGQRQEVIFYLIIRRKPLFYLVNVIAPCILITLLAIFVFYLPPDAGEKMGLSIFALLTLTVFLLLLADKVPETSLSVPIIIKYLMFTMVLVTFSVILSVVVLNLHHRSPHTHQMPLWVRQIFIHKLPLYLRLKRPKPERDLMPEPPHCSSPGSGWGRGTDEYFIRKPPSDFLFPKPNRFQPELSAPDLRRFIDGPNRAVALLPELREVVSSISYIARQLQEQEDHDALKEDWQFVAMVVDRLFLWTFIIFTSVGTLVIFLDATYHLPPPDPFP
Chain of human alpha1 nicotinic acetylcholine (nACh) receptor (Q07001 22-517): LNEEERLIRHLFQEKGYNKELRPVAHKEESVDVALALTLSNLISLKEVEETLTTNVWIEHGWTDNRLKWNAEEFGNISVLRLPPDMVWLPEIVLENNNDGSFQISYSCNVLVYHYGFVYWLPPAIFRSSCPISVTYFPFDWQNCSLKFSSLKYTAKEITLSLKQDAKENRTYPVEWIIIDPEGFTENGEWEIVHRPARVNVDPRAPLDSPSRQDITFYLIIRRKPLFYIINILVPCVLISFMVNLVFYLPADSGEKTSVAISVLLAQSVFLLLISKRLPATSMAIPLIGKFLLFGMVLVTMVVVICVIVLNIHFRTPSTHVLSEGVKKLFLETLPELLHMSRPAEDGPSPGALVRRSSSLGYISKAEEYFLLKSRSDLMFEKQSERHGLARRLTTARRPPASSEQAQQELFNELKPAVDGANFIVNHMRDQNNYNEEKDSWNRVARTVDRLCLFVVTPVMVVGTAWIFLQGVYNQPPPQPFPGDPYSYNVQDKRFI

By IC50 is commonly meant the midpoint of a concentration-inhibition curve. In the case of `CC(C)N(C)[C@@H]1CC[C@H](N2CC[C@H](Nc3ncnc4ccc(C(F)(F)F)cc34)C2=O)[C@H](NC(=O)[C@H]2CC[C@@H](NC(=O)CCOCCNC(=O)CCNC(=O)CCNC(=O)[C@H]3CC(=O)N(C)[C@@H]3c3cccnc3)CC2)C1` [Example 182, (2S,3S)-N-(3-((3-((2-(3-(((1S,4s)-4-(((1R,2S,5R)-5-(Isopropyl(methyl)amino)-2-((S)-2-oxo-3-((6-(trifluoromethyl)quinazolin-4-yl)amino)pyrrolidin-1-yl)cyclohexyl)carbamoyl)cyclohexyl)amino)-3-oxopropoxy)ethyl)amino)-3-oxopropyl)amino)-3-oxopropyl)-1-methyl-5-oxo-2-(pyridin-3-yl)pyrrolidine-3-carboxamide], the EC50 in experiment [1] was 0.514 nM and 0.191 nM. In addition, in experiment [2] (read-out: Maximum Response (%)), the Emax at 100 µM was 61.9%. The IC50 in experiment [2] stood at 76400 nM. The “pKd of Antibody for ARM Compound of Formula (I)” value (from here on “pKd of Antibody”) in experiment [3] was 9.117.
On to `CC(C)N(C)[C@@H]1CC[C@H](N2CC[C@H](Nc3ncnc4ccc(C(F)(F)F)cc34)C2=O)[C@H](NC(=O)[C@H]2CC[C@H](C(=O)NCCCOCCCCOCCCNC(=O)[C@H]3CC(=O)N(C)[C@@H]3c3cccnc3)CC2)C1` [Example 194, (1 r,4R)-N^1-((1R,2S,5R)-5-(Isopropyl(methyl)amino)-2-((S)-2-oxo-3-((6-(trifluoromethyl)quinazolin-4-yl)amino)pyrrolidin-1-yl)cyclohexyl)-N^4-(3-(4-(3-((2S,3S)-1-methyl-5-oxo-2-(pyridin-3-yl)pyrrolidine-3-carboxamido)propoxy)butoxy)propyl)cyclohexane-1,4-dicarboxamide], for which the EC50 in experiment [1] is 0.275 nM. Besides, in experiment [2] (read-out: Maximum Response (%)), the Emax at 100 µM came out at 44.9%. Further, in experiment [2], the IC50 is more than 100000 nM. Besides, the “pKd of Antibody” value in experiment [3] worked out at 9.5415.
In the case of `CCN1C(=O)C[C@H](C(=O)NCCOCCOCCOCCC(=O)N[C@H]2CC[C@@H](C(=O)N[C@@H]3C[C@H](N(C)C(C)C)CC[C@@H]3N3CC[C@H](Nc4ncnc5ccc(C(F)(F)F)cc45)C3=O)CC2)[C@H]1c1cccnc1` [Example 34], the EC50 in experiment [1] is 1 nM. Besides, the Emax at 100 µM in experiment [2] (read-out: Maximum Response (%)) turned out to be 79.2%. This molecule also had an IC50 in experiment [2] of 28500 nM. The “pKd of Antibody” value in experiment [3] came to 9.933.
As to `CC(C)N(C)[C@@H]1CC[C@H](N2CC[C@H](Nc3ncnc4ccc(C(F)(F)F)cc34)C2=O)[C@H](NC(=O)[C@H]2CC[C@H](NC(=O)CCCOC[C@H]3CC[C@@H](COCCNC(=O)[C@H]4CC(=O)N(C)[C@@H]4c4cccnc4)CC3)CC2)C1` [Example 57, (2S,3S)-N-(2-(((1S,4R)-4-((4-(((1R,4R)-4-(((1R,2S,5R)-5-(Isopropyl(methyl)amino)-2-((S)-2-oxo-3-((6-(trifluoromethyl)quinazolin-4-yl)amino)pyrrolidin-1-yl)cyclohexyl)carbamoyl)cyclohexyl)amino)-4-oxobutoxy)methyl)cyclohexyl)methoxy)ethyl)-1-methyl-5-oxo-2-(pyridin-3-yl)pyrrolidine-3-carboxamide], the EC50 in experiment [1] is 1.61 nM and 1.48 nM and 5.07 nM. In addition, the Emax at 30 µM in experiment [2] (maximum percentage antagonism at maximum concentration tested 30 μM, read-out: Maximum Response (%)) is 47.6%. In experiment [2], the IC50 is more than 30000 nM. In experiment [3], the “pKd of Antibody” value was 9.685.
With `CC(C)N(C)[C@@H]1CC[C@H](N2CC[C@H](Nc3ncnc4ccc(C(F)(F)F)cc34)C2=O)[C@H](NC(=O)C2CCC(NC(=O)CCOCCNC(=O)CCOCCNC(=O)[C@H]3CC(=O)N(C)[C@@H]3c3cccnc3)CC2)C1` (some centres unmarked) [Example 48], the “ADCC Reporter Assay pEC50” value in experiment [1] is 9.159 and 9.168. The Emax at 100 µM in experiment [2] (read-out: Maximum Response (%)) was found to be 77%. Also, it took 31800 nM to reach half-maximal inhibition in experiment [2] (IC50). Moreover, in experiment [3], the “pKd of Antibody” value was 8.975.
Consider `CC(C)N(C)[C@@H]1CC[C@H](N2CC[C@H](Nc3ncnc4ccc(C(F)(F)F)cc34)C2=O)[C@H](NC(=O)[C@H]2CC[C@@H](NC(=O)CCOCCOCCNC(=O)CNC(=O)[C@H]3CC(=O)N(C)[C@@H]3c3cccnc3)CC2)C1` [Example 63, (2S,3S)-N-(2-((2-(2-(3-(((1 S,4s)-4-(((1R,2S,5R)-5-(Isopropyl(methyl)amino)-2-((S)-2-oxo-3-((6-(trifluoromethyl)quinazolin-4-yl)amino)pyrrolidin-1-yl)cyclohexyl)carbamoyl)cyclohexyl)amino)-3-oxopropoxy)ethoxy)ethyl)amino)-2-oxoethyl)-1-methyl-5-oxo-2-(pyridin-3-yl)pyrrolidine-3-carboxamide], for which the EC50 in experiment [1] is 0.67 nM and 0.31 nM. The Emax at 100 µM in experiment [2] (read-out: Maximum Response (%)) was found to be 76.6%. In experiment [2], this molecule gave an IC50 of 38500 nM. Moreover, in experiment [3], the “pKd of Antibody” value is 8.674.
In the case of `CC(C)N(C)[C@@H]1CC[C@H](N2CC[C@H](Nc3ncnc4ccc(C(F)(F)F)cc34)C2=O)[C@H](NC(=O)[C@H]2CC[C@@H](NC(=O)CCOCCOCCNC(=O)CCNC(=O)[C@H]3CC(=O)N(C)[C@@H]3c3cccnc3)CC2)C1` [Example 16, (2S,3S)-N-(3-((2-(2-(3-(((1S,4s)-4-(((1R,2S,5R)-5-(Isopropyl(methyl)amino)-2-((S)-2-oxo-3-((6-(trifluoromethyl)quinazolin-4-yl)amino)pyrrolidin-1-yl)cyclohexyl)carbamoyl)cyclohexyl)amino)-3-oxopropoxy)ethoxy)ethyl)amino)-3-oxopropyl)-1-methyl-5-oxo-2-(pyridin-3-yl)pyrrolidine-3-carboxamide], the EC50 in experiment [1] was 0.925 nM and 0.119 nM. In experiment [2] (read-out: Maximum Response (%)), the Emax at 100 µM turned out to be 47.8%. In addition, the IC50 in experiment [2] was more than 100000 nM. For the same molecule, the “pKd of Antibody” value in experiment [3] stood at 9.287.
As to `CC(C)N(C)[C@@H]1CC[C@H](N2CC[C@H](Nc3ncnc4ccc(C(F)(F)F)cc34)C2=O)[C@H](NC(=O)CNC(=O)[C@H]2CC[C@@H](NC(=O)CCOCCOCCNC(=O)[C@H]3CC(=O)N(C)[C@@H]3c3cccnc3)CC2)C1` [Example 137, (2S,3S)-N-(2-(2-(3-(((1S,4s)-4-((2-(((1R,2S,5R)-5-(Isopropyl(methyl)amino)-2-((S)-2-oxo-3-((6-(trifluoromethyl)quinazolin-4-yl)amino)pyrrolidin-1-yl)cyclohexyl)amino)-2-oxoethyl)carbamoyl)cyclohexyl)amino)-3-oxopropoxy)ethoxy)ethyl)-1-methyl-5-oxo-2-(pyridin-3-yl)pyrrpolidine-3-carboxamide], the EC50 in experiment [1] is 1.67 nM. In addition, the Emax at 100 µM in experiment [2] (read-out: Maximum Response (%)) worked out at 62%. Besides, half-maximal inhibition in experiment [2] (IC50) was put at 70000 nM. In experiment [3], the “pKd of Antibody” value worked out at 9.336.
For the molecule `CC(C)N(C)[C@@H]1CC[C@H](N2CC[C@H](Nc3ncnc4ccc(C(F)(F)F)cc34)C2=O)[C@H](NC(=O)[C@H]2CC[C@@H](NC(=O)CCCO[C@H]3CC[C@H](OCCNC(=O)[C@H]4CC(=O)N(C)[C@@H]4c4cccnc4)CC3)CC2)C1` [Example 5], the EC50 in experiment [1] was 0.316 nM and 0.386 nM. Besides, in experiment [2] (read-out: Maximum Response (%)), the Emax at 100 µM was found to be 40.5%. Besides, the IC50 in experiment [2] is more than 100000 nM. Further, the “pKd of Antibody” value in experiment [3] was found to be 9.19.
As to `CN1C(=O)C[C@H](C(=O)NCCOCCOCCOCCC(=O)N[C@H]2CC[C@@H](C(=O)N[C@@H]3C[C@H](NC(C)(C)C)CC[C@@H]3N3CC[C@H](Nc4ncnc5ccc(C(F)(F)F)cc45)C3=O)CC2)[C@H]1c1cccnc1` [Example 23, (2S,3S)-N-(2-(2-(2-(3-(((1S,4s)-4-(((1R,2S,5R)-5-(tert-Butylamino)-2-((S)-2-oxo-3-((6-(trifluoromethyl)quinazolin-4-yl)amino)pyrrolidin-1-yl)cyclohexyl)carbamoyl)cyclohexyl)amino)-3-oxopropoxy)ethoxy)ethoxy)ethyl)-1-methyl-5-oxo-2-(pyridin-3-yl)pyrrolidine-3-carboxamide], the EC50 in experiment [1] is 1.12 nM and 2.69 nM and 0.566 nM. Also, the Emax at 100 µM in experiment [2] (read-out: Maximum Response (%)) is 50.5%. Moreover, the IC50 in experiment [2] stood at 85200 nM. The “pKd of Antibody” value in experiment [3] came out at 9.2166.
Regarding `CC(C)N(C)[C@@H]1CC[C@H](N2CC[C@H](Nc3ncnc4ccc(C(F)(F)F)cc34)C2=O)[C@H](NC(=O)CCOCCNC(=O)[C@H]2CC[C@@H](NC(=O)COCCNC(=O)[C@H]3CC(=O)N(C)[C@@H]3c3cccnc3)CC2)C1` [Example 107, (2S,3S)-N-(2-(2-(((1S,4R)-4-((2-(3-(((1R,2S,5R)-5-(Isopropyl(methyl)amino)-2-((S)-2-oxo-3-((6-(trifluoromethyl)quinazolin-4-yl)amino)pyrrolidin-1-yl)cyclohexyl)amino)-3-oxopropoxy)ethyl)carbamoyl)cyclohexyl)amino)-2-oxoethoxy)ethyl)-1-methyl-5-oxo-2-(pyridin-3-yl)pyrrolidine-3-carboxamide], in experiment [1], the EC50 was 0.158 nM. In experiment [2] (maximum percentage antagonism at maximum concentration tested 10 μM, read-out: Maximum Response (%)), the Emax at 10 µM is 12.2%. In addition, in experiment [2], the IC50 was more than 10000 nM. The “pKd of Antibody” value in experiment [3] stood at 9.161.
